{"source": "patent US20260041653A1", "about": "“AN HDAC INHIBITOR FOR TREATING CANCER WITH A MODIFIED STK11 ACTIVITY OR EXPRESSION” (Tango Therapeutics, Inc., priority 2022, published 2026)", "system": "MC38_sgStk11 tumor", "experiment": "Anti-tumor efficacy in murine subcutaneous MC38_sgStk11 tumor model", "type": "in vivo, Mus musculus", "details": "for T/C / TGI %: day 11", "experimental": "Summary: An in vivo anti-tumor efficacy of double combination treatment of Anti-PD1 and HDAC1,2-selective inhibitor in a murine subcutaneous MC38_sgStk11 tumor model in […] mice was performed.\n96 mice plus 39 spare mice of the species: Mus musculus: strain: C57BL/6; age 8-10 weeks; sex: female; and body weight: 16.9-20.0 g\nThe MC38_sgStk11 tumor cells were maintained in vitro as a monolayer culture in DMEM+2 mM glutamine supplemented with about 10% heat inactivated fetal bovine serum, about 100 U/ml penicillin and 100 μg/ml streptomycin at about 37° C. in an atmosphere of about 5% CO2 in air. The tumor cells were routinely sub-cultured twice weekly by trypsin-EDTA treatment. The cells growing in an exponential growth phase were harvested and counted for tumor inoculation.\nEach mouse was inoculated subcutaneously at the right upper flank with MC38_sgStk11 tumor cells (0.5×106) in 0.1 ml of PBS for tumor development. Treatments were started on day 4 after tumor inoculation when the average tumor size reached 52 mm^3. The animals were assigned into groups according to a sorting standard operating procedures based upon their tumor volumes. Each group consisted of 8 tumor bearing mice. The testing article was administrated to the mice according to the predetermined regimen as shown in the experimental design table (Table 1-1).\nAll the procedures related to animal handling, care and the treatment in the study were performed according to the guidelines approved by the Institutional Animal Care and Use Committee (IACUC) of vendor following the guidance of the Association for Assessment and Accreditation of Laboratory Animal Care (AAALAC). At the time of routine monitoring, the animals were daily checked for any effects of tumor growth and treatments on normal behavior such as mobility, food and water consumption, body weight gain/loss (body weights were measured three times per week), eye/hair matting and any other abnormal effect as stated in the protocol. Death and observed clinical signs were recorded on the basis of the numbers of animals within each subset.\nA primary endpoint was to see if the tumor growth could be delayed or mice could be cured. Tumor size was measured three times per week in two dimensions using a caliper, and the volume was expressed in mm3 using the formula: V=0.5 a×b2 where a and b are the long and short diameters of the tumor, respectively. The T/C value (in percent) is an indication of antitumor effectiveness; T and C are the mean volume of the treated and control groups, respectively, on a given day. TGI is calculated for each group using the formula: TGI (%)=[1−(Ti−T0)/(Vi−V0)]×100; Ti is the average tumor volume of a treatment group on a given day, T0 is the average tumor volume of the treatment group on the day of treatment start, Vi is the average tumor volume of the vehicle control group on the same day with Ti, and V0 is the average tumor volume of the vehicle group on the day of treatment start.\nStatistical analysis of difference in the tumor volume among the groups were conducted on the data obtained at the best therapeutic time point at the day 11 after the start of treatment. A one-way ANOVA was performed for comparisons between groups. The survival analysis between groups was carried out with Kaplan-Meier test. p<0.05 was considered to be statistically significant.", "key": {"[1]": {"details": "Gr 2: Compound I 3 mg/kg PO QD + Anti-IgG2a 10 mg/kg IP BIW"}, "[2]": {"details": "Gr 3: Compound I 10 mg/kg PO QD + Anti-IgG2a 10 mg/kg IP BIW"}, "[3]": {"details": "Gr 4: Compound I 30 mg/kg PO QD + Anti-IgG2a 10 mg/kg IP BIW"}, "[4]": {"details": "Gr 5: Compound I 75 mg/kg PO QD + Anti-IgG2a 10 mg/kg IP BIW"}}, "data": [{"smiles": "C[S@@](=N)(=O)c1ccc(C(=O)Nc2cc(-c3ccc(F)cc3)ccc2N)cc1", "note": "[Compound I, (R)—N-(4-amino-4′-fluoro-[1,1′-biphenyl]-3-yl)-4-(S-methylsulfonimidoyl)benzamide]", "values": [{"measurement": "CR (complete regression)", "setting": "[1]", "value": 0.0, "unit": "%"}, {"measurement": "ORR (CR + PR)", "setting": "[1]", "value": 0.0, "unit": "%"}, {"measurement": "PR (partial regression)", "setting": "[1]", "value": 0.0, "unit": "%"}, {"measurement": "Tumor Volume", "setting": "Gr 2: Compound I 3 mg/kg PO QD + Anti-IgG2a 10 mg/kg IP BIW, day 0 of treatment", "value": "52 ± 2", "unit": "mm^3"}, {"measurement": "Tumor Volume", "setting": "Gr 2: Compound I 3 mg/kg PO QD + Anti-IgG2a 10 mg/kg IP BIW, day 2 of treatment", "value": "208 ± 6", "unit": "mm^3"}, {"measurement": "Tumor Volume", "setting": "Gr 2: Compound I 3 mg/kg PO QD + Anti-IgG2a 10 mg/kg IP BIW, day 4 of treatment", "value": "489 ± 23", "unit": "mm^3"}, {"measurement": "Tumor Volume", "setting": "Gr 2: Compound I 3 mg/kg PO QD + Anti-IgG2a 10 mg/kg IP BIW, day 7 of treatment", "value": "925 ± 98", "unit": "mm^3"}, {"measurement": "Tumor Volume", "setting": "Gr 2: Compound I 3 mg/kg PO QD + Anti-IgG2a 10 mg/kg IP BIW, day 9 of treatment", "value": "1439 ± 130", "unit": "mm^3"}, {"measurement": "T/C", "setting": "[1]", "value": 98.7, "unit": "%"}, {"measurement": "TGI %", "setting": "[1]", "value": 1.3, "unit": "%"}, {"measurement": "Tumor Volume", "setting": "Gr 2: Compound I 3 mg/kg PO QD + Anti-IgG2a 10 mg/kg IP BIW, day 11 of treatment", "value": "2105 ± 184", "unit": "mm^3"}, {"measurement": "Tumor Volume", "setting": "Gr 2: Compound I 3 mg/kg PO QD + Anti-IgG2a 10 mg/kg IP BIW, day 14 of treatment", "value": "2876 ± 196", "unit": "mm^3"}, {"measurement": "Tumor Volume", "setting": "Gr 2: Compound I 3 mg/kg PO QD + Anti-IgG2a 10 mg/kg IP BIW, day 16 of treatment", "value": "3215 ± 79", "unit": "mm^3"}, {"measurement": "CR (complete regression)", "setting": "[2]", "value": 0.0, "unit": "%"}, {"measurement": "ORR (CR + PR)", "setting": "[2]", "value": 0.0, "unit": "%"}, {"measurement": "PR (partial regression)", "setting": "[2]", "value": 0.0, "unit": "%"}, {"measurement": "Tumor Volume", "setting": "Gr 3: Compound I 10 mg/kg PO QD + Anti-IgG2a 10 mg/kg IP BIW, day 0 of treatment", "value": "52 ± 2", "unit": "mm^3"}, {"measurement": "Tumor Volume", "setting": "Gr 3: Compound I 10 mg/kg PO QD + Anti-IgG2a 10 mg/kg IP BIW, day 2 of treatment", "value": "213 ± 10", "unit": "mm^3"}, {"measurement": "Tumor Volume", "setting": "Gr 3: Compound I 10 mg/kg PO QD + Anti-IgG2a 10 mg/kg IP BIW, day 4 of treatment", "value": "473 ± 38", "unit": "mm^3"}, {"measurement": "Tumor Volume", "setting": "Gr 3: Compound I 10 mg/kg PO QD + Anti-IgG2a 10 mg/kg IP BIW, day 7 of treatment", "value": "735 ± 82", "unit": "mm^3"}, {"measurement": "Tumor Volume", "setting": "Gr 3: Compound I 10 mg/kg PO QD + Anti-IgG2a 10 mg/kg IP BIW, day 9 of treatment", "value": "1059 ± 167", "unit": "mm^3"}, {"measurement": "T/C", "setting": "[2]", "value": 65.8, "unit": "%"}, {"measurement": "TGI %", "setting": "[2]", "value": 35.0, "unit": "%"}, {"measurement": "Tumor Volume", "setting": "Gr 3: Compound I 10 mg/kg PO QD + Anti-IgG2a 10 mg/kg IP BIW, day 11 of treatment", "value": "1403 ± 270", "unit": "mm^3"}, {"measurement": "Tumor Volume", "setting": "Gr 3: Compound I 10 mg/kg PO QD + Anti-IgG2a 10 mg/kg IP BIW, day 14 of treatment", "value": "1923 ± 343", "unit": "mm^3"}, {"measurement": "Tumor Volume", "setting": "Gr 3: Compound I 10 mg/kg PO QD + Anti-IgG2a 10 mg/kg IP BIW, day 16 of treatment", "value": "2101 ± 176", "unit": "mm^3"}, {"measurement": "Tumor Volume", "setting": "Gr 3: Compound I 10 mg/kg PO QD + Anti-IgG2a 10 mg/kg IP BIW, day 18 of treatment", "value": "2570 ± 205", "unit": "mm^3"}, {"measurement": "Tumor Volume", "setting": "Gr 3: Compound I 10 mg/kg PO QD + Anti-IgG2a 10 mg/kg IP BIW, day 21 of treatment", "value": "3275 ± 64", "unit": "mm^3"}, {"measurement": "CR (complete regression)", "setting": "[3]", "value": 0.0, "unit": "%"}, {"measurement": "ORR (CR + PR)", "setting": "[3]", "value": 0.0, "unit": "%"}, {"measurement": "PR (partial regression)", "setting": "[3]", "value": 0.0, "unit": "%"}, {"measurement": "Tumor Volume", "setting": "Gr 4: Compound I 30 mg/kg PO QD + Anti-IgG2a 10 mg/kg IP BIW, day 0 of treatment", "value": "52 ± 2", "unit": "mm^3"}, {"measurement": "Tumor Volume", "setting": "Gr 4: Compound I 30 mg/kg PO QD + Anti-IgG2a 10 mg/kg IP BIW, day 2 of treatment", "value": "212 ± 14", "unit": "mm^3"}, {"measurement": "Tumor Volume", "setting": "Gr 4: Compound I 30 mg/kg PO QD + Anti-IgG2a 10 mg/kg IP BIW, day 4 of treatment", "value": "484 ± 37", "unit": "mm^3"}, {"measurement": "Tumor Volume", "setting": "Gr 4: Compound I 30 mg/kg PO QD + Anti-IgG2a 10 mg/kg IP BIW, day 7 of treatment", "value": "734 ± 64", "unit": "mm^3"}, {"measurement": "Tumor Volume", "setting": "Gr 4: Compound I 30 mg/kg PO QD + Anti-IgG2a 10 mg/kg IP BIW, day 9 of treatment", "value": "883 ± 84", "unit": "mm^3"}, {"measurement": "T/C", "setting": "[3]", "value": 49.5, "unit": "%"}, {"measurement": "TGI %", "setting": "[3]", "value": 51.8, "unit": "%"}, {"measurement": "Tumor Volume", "setting": "Gr 4: Compound I 30 mg/kg PO QD + Anti-IgG2a 10 mg/kg IP BIW, day 11 of treatment", "value": "1055 ± 101", "unit": "mm^3"}, {"measurement": "Tumor Volume", "setting": "Gr 4: Compound I 30 mg/kg PO QD + Anti-IgG2a 10 mg/kg IP BIW, day 14 of treatment", "value": "1481 ± 146", "unit": "mm^3"}, {"measurement": "Tumor Volume", "setting": "Gr 4: Compound I 30 mg/kg PO QD + Anti-IgG2a 10 mg/kg IP BIW, day 16 of treatment", "value": "1977 ± 272", "unit": "mm^3"}, {"measurement": "Tumor Volume", "setting": "Gr 4: Compound I 30 mg/kg PO QD + Anti-IgG2a 10 mg/kg IP BIW, day 18 of treatment", "value": "2344 ± 368", "unit": "mm^3"}, {"measurement": "Tumor Volume", "setting": "Gr 4: Compound I 30 mg/kg PO QD + Anti-IgG2a 10 mg/kg IP BIW, day 21 of treatment", "value": "2602 ± 361", "unit": "mm^3"}, {"measurement": "Tumor Volume", "setting": "Gr 4: Compound I 30 mg/kg PO QD + Anti-IgG2a 10 mg/kg IP BIW, day 23 of treatment", "value": "2794 ± 665", "unit": "mm^3"}, {"measurement": "Tumor Volume", "setting": "Gr 4: Compound I 30 mg/kg PO QD + Anti-IgG2a 10 mg/kg IP BIW, day 25 of treatment", "value": 1551, "unit": "mm^3"}, {"measurement": "Tumor Volume", "setting": "Gr 4: Compound I 30 mg/kg PO QD + Anti-IgG2a 10 mg/kg IP BIW, day 28 of treatment", "value": 2589, "unit": "mm^3"}, {"measurement": "Tumor Volume", "setting": "Gr 4: Compound I 30 mg/kg PO QD + Anti-IgG2a 10 mg/kg IP BIW, day 30 of treatment", "value": 3550, "unit": "mm^3"}, {"measurement": "CR (complete regression)", "setting": "[4]", "value": 12.5, "unit": "%"}, {"measurement": "ORR (CR + PR)", "setting": "[4]", "value": 12.5, "unit": "%"}]}]}
